Reference: US9266857B2, “Bicyclic AZA compounds as muscarinic M1 receptor agonists” (Heptares Therapeutics Limited, priority 2012, dated 2016)
Like-named read-outs stand apart in the source and are kept apart here.

Columns and labels:
Assay type in all cases: cell-based
[1] = target: T1, human muscarinic M1 receptor (Homo sapiens, UniProt P11229); assay: Alphascreen Surefire phospho-ERK1/2 functional assay, M1; conditions: for EC50: CHO cells stably expressing human M1, phospho-ERK1/2, read-out: pEC50 M1 (converted); for Emax: CHO
T1 construct: expressed in transfected cells
T1 sequence (P11229 1-460): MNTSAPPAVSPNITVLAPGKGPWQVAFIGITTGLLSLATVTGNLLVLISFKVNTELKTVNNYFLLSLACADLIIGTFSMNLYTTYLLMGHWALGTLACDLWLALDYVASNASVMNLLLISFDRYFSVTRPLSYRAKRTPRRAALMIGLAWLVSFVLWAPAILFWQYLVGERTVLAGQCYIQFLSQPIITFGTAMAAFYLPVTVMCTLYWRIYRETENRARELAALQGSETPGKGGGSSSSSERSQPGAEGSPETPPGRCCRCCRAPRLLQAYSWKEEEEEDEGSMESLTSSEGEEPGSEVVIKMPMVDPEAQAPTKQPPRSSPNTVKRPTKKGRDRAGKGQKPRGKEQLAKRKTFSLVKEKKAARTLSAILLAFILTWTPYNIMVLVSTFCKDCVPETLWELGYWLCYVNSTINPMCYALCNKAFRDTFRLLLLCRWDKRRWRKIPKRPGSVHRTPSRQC
Experimental: (§1) ERK1/2 phosphorylation is a downstream consequence of both Gq/11 and Gi/o protein coupled receptor activation, making it highly suitable for the assessment of M1, M3 (Gq/11 coupled) and M2, M4 receptors (Gi/o coupled), rather than using different assay formats for different receptor subtypes. CHO cells stably expressing the human muscarinic M1, M2, M3 or M4 receptor were plated (25K/well) onto 96-well tissue culture plates in MEM-alpha+10% dialysed FBS. Once adhered, cells were serum-starved overnight. Agonist stimulation was performed by the addition of 5 μL agonist to the cells for 5 min (37° C.). Media was removed and 50 μL of lysis buffer added. After 15 min, a 4 μL sample was transferred to 384-well plate and 7 μL of detection mixture added. Plates were incubated for 2 h with gentle agitation in the dark and then read on a PHERAstar plate reader.
(§2) pEC50 and Emax figures were calculated from the resulting data for each receptor subtype.

[2] = target: T2, human muscarinic M2 receptor (Homo sapiens, UniProt P08172); assay: Alphascreen Surefire phospho-ERK1/2 functional assay, M2; conditions: for EC50: CHO cells stably expressing human M2, phospho-ERK1/2, read-out: pEC50 M2 (converted); for Emax: CHO, read-out: % Emax cf. ACh, M2
T2 construct: expressed in transfected cells
T2 sequence (P08172 1-466): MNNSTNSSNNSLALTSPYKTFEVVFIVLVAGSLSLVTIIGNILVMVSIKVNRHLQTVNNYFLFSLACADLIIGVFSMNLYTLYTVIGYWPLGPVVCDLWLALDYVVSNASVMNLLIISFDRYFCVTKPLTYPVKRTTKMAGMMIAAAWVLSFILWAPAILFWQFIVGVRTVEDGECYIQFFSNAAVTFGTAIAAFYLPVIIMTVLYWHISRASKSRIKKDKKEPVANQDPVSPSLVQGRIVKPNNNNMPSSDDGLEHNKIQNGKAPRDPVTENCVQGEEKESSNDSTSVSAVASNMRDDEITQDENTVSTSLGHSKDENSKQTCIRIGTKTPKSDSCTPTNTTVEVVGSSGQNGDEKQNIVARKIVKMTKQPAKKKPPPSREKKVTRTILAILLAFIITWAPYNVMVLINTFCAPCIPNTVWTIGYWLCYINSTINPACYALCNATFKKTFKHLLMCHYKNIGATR
Experimental: as §1, §2

[3] = target: T3, human muscarinic M3 receptor (Homo sapiens, UniProt P20309); assay: Alphascreen Surefire phospho-ERK1/2 functional assay, M3; conditions: for EC50: CHO cells stably expressing human M3, phospho-ERK1/2, read-out: pEC50 M3 (converted); for Emax: CHO, read-out: % Emax cf. ACh, M3
T3 construct: expressed in transfected cells
Experimental: as §1, §2

[4] = target: T4, human muscarinic M4 receptor (Homo sapiens, UniProt P08173); assay: Alphascreen Surefire phospho-ERK1/2 functional assay, M4; conditions: for EC50: phospho-ERK1/2, read-out: pEC50 M4 (converted); for Emax: CHO
T4 construct: expressed in transfected cells
T4 sequence (P08173 1-479): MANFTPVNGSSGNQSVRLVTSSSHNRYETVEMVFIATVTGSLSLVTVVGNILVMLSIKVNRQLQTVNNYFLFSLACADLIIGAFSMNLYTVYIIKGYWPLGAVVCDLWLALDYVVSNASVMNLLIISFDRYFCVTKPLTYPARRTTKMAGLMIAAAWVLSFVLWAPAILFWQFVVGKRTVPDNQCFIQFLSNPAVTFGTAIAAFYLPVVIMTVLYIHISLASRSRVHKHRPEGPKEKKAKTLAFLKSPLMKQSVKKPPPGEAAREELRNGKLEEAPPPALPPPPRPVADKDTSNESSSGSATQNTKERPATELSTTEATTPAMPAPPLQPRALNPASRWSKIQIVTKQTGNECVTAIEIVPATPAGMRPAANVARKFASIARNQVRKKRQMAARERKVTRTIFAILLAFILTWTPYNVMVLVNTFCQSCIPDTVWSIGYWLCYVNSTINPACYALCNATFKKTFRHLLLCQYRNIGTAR
Experimental: as §1, §2

[5] = CHO cells stably expressing human M4
[6] = read-out: % Emax cf. ACh, M1, CHO cells stably expressing human M1, relative to ACh
[7] = read-out: % Emax cf. ACh, M4, CHO cells stably expressing human M4, relative to ACh

T3 sequence (P20309 whole entry): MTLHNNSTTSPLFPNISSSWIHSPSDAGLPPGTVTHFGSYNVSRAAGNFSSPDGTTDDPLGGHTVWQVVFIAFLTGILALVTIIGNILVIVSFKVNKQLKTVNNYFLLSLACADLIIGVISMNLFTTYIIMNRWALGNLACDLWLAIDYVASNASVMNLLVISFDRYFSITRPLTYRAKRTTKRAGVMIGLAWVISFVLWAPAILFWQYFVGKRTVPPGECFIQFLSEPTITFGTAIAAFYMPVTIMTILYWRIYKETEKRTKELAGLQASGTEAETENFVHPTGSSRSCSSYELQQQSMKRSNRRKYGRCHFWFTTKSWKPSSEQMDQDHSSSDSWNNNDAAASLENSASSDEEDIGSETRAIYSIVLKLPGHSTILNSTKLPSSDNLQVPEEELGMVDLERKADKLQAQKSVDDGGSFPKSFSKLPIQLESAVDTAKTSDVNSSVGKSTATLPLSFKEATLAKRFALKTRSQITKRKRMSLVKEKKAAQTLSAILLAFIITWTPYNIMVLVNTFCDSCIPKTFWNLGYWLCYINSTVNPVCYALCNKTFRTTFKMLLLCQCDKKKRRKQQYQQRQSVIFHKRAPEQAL

Compound | EC50 [1] | Emax ([1]; read-out: % Emax cf. ACh, M1) | EC50 [2] | Emax [2] | EC50 [3] | Emax [3] | EC50 [4, 5] | Emax ([4]; read-out: % Emax cf. ACh, M4) | Emax [1, 6] | Emax [4, 7] | % Emax cf. ACh, M4 ([4]; CHO cells stably expressing human M4, relative to ACh, listed as 1 - Isomer 1)
CCOC(=O)N1CCC2(CC(N3CCC(F)(C(=O)NC4(C)CCC4)CC3)C2)C1 (mixture of isomers) [Example 11 - mixture of diastereomers, ethyl 2-{4-fluoro-4-[(1-methylcyclobutyl)carbamoyl]piperidin-1-yl}-6-azaspiro[3.4]octane-6-carboxylate] | 28.2 nM | 112% | > 20000 nM | 6% | > 20000 nM | 4% | 204 nM | 77% |  |  | 
[2H]C([2H])([2H])COC(=O)N1CCC2(CC(N3CCC(C(=O)NC4(C)CCC4)CC3)C2)C1 (single isomer, unassigned) [Example 25 - Isomer 2, (2,2,2-trideutero)ethyl 2-{4-[(1-methylcyclobutyl)carbamoyl]piperidin-1-yl}-6-azaspiro[3.4]octane-6-carboxylate] | 53.7 nM | 108% | > 20000 nM | 23% | > 20000 nM | 17% | 174 nM | 83% |  |  | 
CCOC(=O)N1C2CCC1CC(N1CCC(F)(C(=O)NC3(C)CCC3)CC1)C2 (single isomer, unassigned) [Example 4 - Isomer 2, ethyl 3-{4-fluoro-4-[(1-methylcyclobutyl)carbamoyl]piperidin-1-yl}-8-azabicyclo[3.2.1]octane-8-carboxylate] | 145 nM |  |  |  |  |  | 1070 nM |  | 111% | 44% | 
C#CCOC(=O)N1C2CCC1CC(N1CCC(C(=O)NC3(C)CCC3)CC1)C2 (single isomer, unassigned) [Example 2 - Isomer 1, prop-2-yn-1-yl 3-{4-[(1-methylcyclobutyl)carbamoyl]piperidin-1-yl}-8-azabicyclo[3.2.1]octane-8-carboxylate] | 331 nM |  | > 20000 nM | 14% | > 20000 nM | 7% | > 20000 nM |  | 94% | 11% | 
CCOC(=O)N1CCC2(CC(N3CCC(C(=O)NC(C)(C)CC)CC3)C2)C1 (mixture of isomers) [Example 16 - mixture of diastereomers, ethyl 2-{4-[(2-methylbutan-2-yl)carbamoyl]piperidin-1-yl}-6-azaspiro[3.4]octane-6-carboxylate] | 309 nM | 113% |  |  |  |  | 646 nM | 56% |  |  | 
[2H]C([2H])([2H])COC(=O)N1CCC2(CC(N3CCC(C(=O)NC4(CF)CCC4)CC3)C2)C1 (single isomer, unassigned) [Example 28 - Isomer 2, (2,2,2-trideutero)ethyl 2-(4-{[1-(fluoromethyl)cyclobutyl]carbamoyl}piperidin-1-yl)-6-azaspiro[3.4]octane-6-carboxylate] | 324 nM | 120% |  |  |  |  | 309 nM | 106% |  |  | 
[2H]C([2H])([2H])C([2H])([2H])OC(=O)N1CCC2(CC(N3CCC(C(=O)NC4(C([2H])([2H])[2H])C([2H])([2H])C([2H])([2H])C4([2H])[2H])CC3)C2)C1 (mixture of isomers) [Example 31 - mixture of diastereomers, (1,1,2,2,2-pentadeutero)ethyl 2-(4-{[1-(1,1,1-trideuteromethyl)-2,2,3,3,4,4-hexadeuterocyclobutyl]carbamoyl}piperidin-1-yl)-6-azaspiro[3.4]octane-6-carboxylate] | 407 nM | 110% |  |  |  |  | 646 nM | 77% |  |  | 
[2H]C([2H])([2H])COC(=O)N1CCC2(CC(N3CCC(C(=O)NC4(C([2H])([2H])[2H])CCC4)CC3)C2)C1 (single isomer, unassigned) [Example 26 - Isomer 2, (2,2,2-trideutero)ethyl 2-(4-{[1-(1,1,1-trideuteromethyl)cyclobutyl]carbamoyl}piperidin-1-yl)-6-azaspiro[3.4]octane-6-carboxylate] | 81.3 nM | 108% |  |  |  |  | 257 nM | 110% |  |  | 
[2H]C([2H])([2H])C1(NC(=O)C2CCN(C3CC4(CCN(C(=O)OC([2H])([2H])C([2H])([2H])[2H])C4)C3)CC2)CCC1 (single isomer, unassigned) [Example 30 - Isomer 2, (1,1,2,2,2-pentadeutero)ethyl 2-(4-{[1-(1,1,1-trideuteromethyl)cyclobutyl]carbamoyl}piperidin-1-yl)-6-azaspiro[3.4]octane-6-carboxylate] | 85.1 nM | 105% |  |  |  |  | 195 nM | 111% |  |  | 
CCOC(=O)N1C2CCC1CC(N1CCC(C(=O)NC3(C)CCC3)CC1)C2 (single isomer, unassigned) [Example 1 - Isomer 1, ethyl 3-{4-[(1-methylcyclobutyl)carbamoyl]piperidin-1-yl}-8-azabicyclo[3.2.1]octane-8-carboxylate] | 324 nM |  |  |  |  |  | 1020 nM |  | 99% |  | 51%
[2H]C([2H])([2H])C1(NC(=O)C2CCN(C3CC4(CCN(C(=O)OCC)C4)C3)CC2)C([2H])([2H])C([2H])([2H])C1([2H])[2H] (single isomer, unassigned) [Example 22 - Isomer 2, ethyl 2-(4-{[1-(1,1,1-trideuteromethyl)-2,2,3,3,4,4-hexadeuterocyclobutyl]carbamoyl}piperidin-1-yl)-6-azaspiro[3.4]octane-6-carboxylate] | 79.4 nM | 103% |  |  |  |  | 209 nM | 67% |  |  | 
CCOC(=O)N1CCC2(CC(N3CCC(C(=O)NC4(C)CCC4)CC3)C2)C1 (single isomer, unassigned) [Example 9 - Isomer 1, ethyl 2-{4-[(1-methylcyclobutyl)carbamoyl]piperidin-1-yl}-6-azaspiro[3.4]octane-6-carboxylate] | 302 nM | 102% |  |  |  |  | 589 nM | 67% |  |  | 
CCOC(=O)N1CCC2(CC(N3CCC(C(=O)NCC4CCC4)CC3)C2)C1 (mixture of isomers) [Example 19 - mixture of diastereomers, ethyl 2-{4-[(cyclobutylmethyl)carbamoyl]piperidin-1-yl}-6-azaspiro[3.4]octane-6-carboxylate] | 363 nM | 109% |  |  |  |  | 1020 nM | 42% |  |  | 
CCOC(=O)N1CCC2(CC(N3CCC(C(=O)NC4(CF)CCC4)CC3)C2)C1 (single isomer, unassigned) [Example 23 - Isomer 2, ethyl 2-(4-{[1-(fluoromethyl)cyclobutyl]carbamoyl}piperidin-1-yl)-6-azaspiro[3.4]octane-6-carboxylate] | 155 nM | 90% |  |  |  |  | 219 nM | 67% |  |  | 
